In general, logD refers to the decadic logarithm of the distribution of all forms, ionised or not, between an organic phase and buffer at a given pH. High values mean higher lipophilicity, low ones lower lipophilicity. For orientation: solubility means the dissolved amount per volume that the medium holds. By logP is commonly meant the decadic logarithm of the partition coefficient of the neutral form, usually between octanol and water. As a reminder, the half-life is the time needed for the level to fall by half in the phase considered. By pIC50 is commonly meant −log10 of the IC50, conventionally taken in molar units. One may read the inhibition as the drop in the measured response relative to a control, in per cent. Read a low inhibition as a response near the control.

pIC50: −log10 of the molar value. Values after ≈ are worked out from the molar mass of the structure shown.

The text below walks through data of ChEMBL document CHEMBL4359934, “Green chemistry appended synthesis, metabolic stability and pharmacokinetic assessment of medicinally important chromene dihydropyrimidinones” (Bioorg Med Chem Lett, 2019).

Data set [1] in a line: n-Octanol-PBS buffer distribution coefficient, log D of compound incubated for 4 hrs by LC-MS/MS analysis. The data set is classed as physicochemical.
Data set [2] can be described thus: Solubility of compound in water incubated for 5 hrs by LC-MS/MS analysis. The data set is classed as physicochemical.
Data set [3] can be described thus: n-Octanol-water partition coefficient, log P of compound incubated for 4 hrs by LC-MS/MS analysis. The data set is classed as physicochemical.
The species entered for data set [4] is Rattus norvegicus. The data set can be described thus: Inhibition of rat P-gp ATPase in jejuna mucosa membrane assessed as remaining enzyme activity at 10 to 40 uM using ATP as substrate preincubated for 5 mins followed by substrate addition and measured after 30 mins. It counts as cell membranes.
Data set [5] is described as follows: Permeability coefficient of compound incubated for 5 hrs by LC-MS/MS analysis based PAMPA assay. The data set is classed as ADME. A general note: The PAMPA barrier holds no transporters, so it reflects passive diffusion.
Data set [6] can be described thus: Protein binding in plasma (unknown origin) incubated for 4 hrs by red equilibrium dialysis based LC-MS/MS analysis. It counts as ADME, cell-free. The following applies: read-out: PPB. In general terms: In equilibrium dialysis free small molecules cross a membrane that holds back macromolecules.
A short description of data set [7]: Ratio of drug level in blood to plasma (unknown origin) at 500 nM measured immediately by LC-MS/MS analysis. The data set is classed as ADME, cell-free. The note with it: blood and plasma.
The nature of data set [8]: Ratio of drug level in blood to plasma (unknown origin) at 500 nM incubated for 15 mins by LC-MS/MS analysis. The data set is classed as ADME, cell-free. The note with it: blood and plasma.
Data set [9] can be described thus: Ratio of drug level in blood to plasma (unknown origin) at 500 nM incubated for 30 mins by LC-MS/MS analysis. The data set is classed as ADME, cell-free. The following applies: blood and plasma.
Data set [10] is described as follows: Ratio of drug level in blood to plasma (unknown origin) at 500 nM incubated for 45 mins by LC-MS/MS analysis. It counts as ADME, cell-free. The following applies: blood and plasma.
Data set [11] can be described thus: Ratio of drug level in blood to plasma (unknown origin) at 500 nM incubated for 60 mins by LC-MS/MS analysis. The note with it: blood and plasma. It counts as ADME, cell-free.
Data set [12] in a line: Metabolic stability in human liver microsomes assessed as remaining compound at 10 uM measured at 15 mins by LC-MS/MS analysis relative to control. The data set is classed as ADME, Microsome. The note with it: 0.25 h. For orientation: Microsomes from liver hold many membrane-bound enzymes, among them those of drug oxidation.
The nature of data set [13]: Metabolic stability in human liver microsomes assessed as remaining compound at 10 uM measured at 30 mins by LC-MS/MS analysis relative to control. The following applies: read-out: Stability. The data set is classed as ADME, Microsome.
Data set [14] is described as follows: Metabolic stability in human liver microsomes assessed as remaining compound at 10 uM measured at 45 mins by LC-MS/MS analysis relative to control. The data set is classed as ADME, Microsome. The note with it: read-out: Stability.
Data set [15] in a line: Metabolic stability in rat liver microsomes assessed as remaining compound at 10 uM measured at 15 mins by LC-MS/MS analysis relative to control. The note with it: read-out: Stability. It counts as ADME, Microsome.
Data set [16] in a line: Metabolic stability in rat liver microsomes assessed as remaining compound at 10 uM measured at 30 mins by LC-MS/MS analysis relative to control. The following applies: read-out: Stability. The data set is classed as ADME, Microsome.
Data set [17] in a line: Metabolic stability in rat liver microsomes assessed as remaining compound at 10 uM measured at 45 mins by LC-MS/MS analysis relative to control. The data set is classed as ADME, Microsome. The following applies: read-out: Stability.
Data set [18] can be described thus: Metabolic stability in rat liver microsomes assessed as half life at 10 uM by LC-MS/MS analysis. It counts as ADME, Microsome.
Data set [19] is described as follows: Intrinsic clearance in rat microsome at 10 uM by LC-MS/MS analysis. The data set is classed as ADME. The following applies: microsomes.
The nature of data set [20]: Intrinsic clearance in rat liver at 10 uM by LC-MS/MS analysis. It counts as ADME, tissue-based. The note with it: read-out: CLH.
The nature of data set [21]: Stability in rat liver microsomes assessed as hepatic extraction ratio at 10 uM by LC-MS/MS analysis. The note with it: read-out: ERH. The data set is classed as ADME, Microsome.
The nature of data set [22]: Metabolic stability in human liver microsomes assessed as half life at 10 uM by LC-MS/MS analysis. It counts as ADME, Microsome.
Data set [23] can be described thus: Intrinsic clearance in human microsomes at 10 uM by LC-MS/MS analysis. The data set is classed as ADME, Microsome.
A short description of data set [24]: Intrinsic clearance in human liver at 10 uM by LC-MS/MS analysis. It counts as ADME, tissue-based. The note with it: read-out: CLH.
The nature of data set [25]: Stability in human liver microsomes assessed as hepatic extraction ratio at 10 uM by LC-MS/MS analysis. The data set is classed as ADME, Microsome. The following applies: read-out: ERH.
The subject of the next data set is A549. The data set can be described thus: Cytotoxicity against human A549 cells assessed as reduction in cell viability by MTT assay. It counts as functional, cell-based.
Data set [26] is filed under the species Rattus norvegicus. Put plainly: Inhibition of rat P-gp ATPase in jejuna mucosa membrane at 10 to 40 uM using ATP as substrate preincubated for 5 mins followed by substrate addition and measured after 30 mins relative to control. It counts as cell membranes.
The species entered for data set [27] is Rattus norvegicus. Put plainly: Inhibition of rat P-gp ATPase in jejuna mucosa membrane assessed as remaining enzyme activity at 20 uM using ATP as substrate preincubated for 5 mins followed by substrate addition and measured after 30 mins. It counts as cell membranes.

As for `CCOC(=O)C1=C(C)NC(=O)NC1c1cc2c(cc1OC)OC(C)(CC)C=C2Cl` (stereo not drawn), in data set [1], the logD at 4 h came out at 0.08. Also, in data set [2], the concentration in solution (solubility at 5 h) was 6.8 µg/mL (≈ 16.2 µM). Besides, the logP at 4 h in data set [3] worked out at 4.06. The Activity in the data set listed under Rattus norvegicus [4] was determined as 6.7 µM/min/µL. In addition, the “log Pe” value in data set [5] is “Dose-dependent effect”. In addition, the fraction unbound at 4 h in data set [6] is less than 0.1. In data set [7], the blood plasma ratio at 0 min, 0.5 µM worked out at 0.9. Further, the blood plasma ratio at 0.25 h, 0.5 µM in [8] was found to be 1.11. Besides, the blood plasma ratio at 0.5 h, 0.5 µM in [9] was found to be 1.25. Besides, in data set [10], the blood plasma ratio at 0.75 h, 0.5 µM was 1.35. The blood plasma ratio at 1 h, 0.5 µM in data set [11] was 1.4. In [12], the Stability is 73%. Further, the figures for the remaining at 0.5 h, 10 µM in data set [13] and in [16] were 73% and 76%, respectively. For the same compound, the remaining at 0.75 h, 10 µM in data set [14] turned out to be 73%; in data set [17], 76%. For the same compound, the remaining at 0.25 h, 10 µM in data set [15] worked out at 76%. Besides, the half-life at 10 µM in data set [18] came to 1.18 h. In addition, the CLint was found to be 19 µL/min/mg in data set [19] and 20.6 µL/min/mg in [23]. The CLint scaled at 10 µM in data set [20] was 34 mL/min/kg; in data set [24] it was 32.3 mL/min/kg. The hepatic extraction ratio at 10 µM in data set [21] stood at 0.41; in data set [25] it was 0.6. Also, the t1/2 in data set [22] worked out at 1.38 h. Besides, the pIC50 with A549 was 6.86. Besides, in the data set listed under Rattus norvegicus [26], the inhibition lay within 1 to 12%.
Regarding `O[C@@H](COc1cccc2ncccc12)CN1CCN([C@@H]2c3ccccc3[C@@H]3[C@H](c4ccccc42)C3(F)F)CC1`, in the data set listed under Rattus norvegicus [27], the Activity turned out to be 2.8 µM/min/µL.
Consider `CC(C)NCC(O)COc1ccc(CC(N)=O)cc1` (stereo not drawn) [ATENOLOL], for which the blood plasma ratio at 0 min, 0.5 µM in data set [7] turned out to be 1.3. Moreover, the blood plasma ratio at 0.25 h, 0.5 µM in data set [8] was 1.17. For the same compound, the blood plasma ratio at 0.5 h, 0.5 µM in data set [9] amounted to 1.2. Besides, the blood plasma ratio at 0.75 h, 0.5 µM in [10] was 1.15. Moreover, in data set [11], the blood plasma ratio at 1 h, 0.5 µM was determined as 1.
